Measured values reported in patent US7507859B2, “Functional synthetic molecules and macromolecules for gene delivery” (Fifth Base LLC, priority 2003, dated 2009).

What was measured:
[1] = Gel formation in DMSO; format: physicochemical; settings: sonication (30 sec) or heating to 60 C for 5 minutes and cooling to room temperature
Experimental: The gels can be produced by either 1) sonication (30 sec) or by heating the suspensions to 60 C for 5 minutes and cooling to room temperature.

[2] = system: DNA; experiment: Ethidium bromide-DNA fluorescence quenching exclusion assay; format: binding; settings: 2 mM HEPES, 150 mM NaCl, 10 μm EDTA, pH 7.4; 60 minutes incubation; triplicate
Experimental: Exclusion assay (adapted from; A. J. Geall, I. S. Blagbrough, Journal of Pharmaceutical and Biomedical Analysis 22 (2000) 849-859)
(§1) Five μg (5 μl of 1 mg/mL solution) of DNA and varying amount of amphiphiles (dependent on the Amphiphile/DNA ratio required) were diluted to 1000 μL with buffer (2 mM HEPES, 150 mM NaCl, 10 μm EDTA, pH 7.4). The solutions were mixed on a bench top vortex and incubated for 60 minutes at ambient temperature. Each solution was then diluted to 3 mL with buffer (2 mM HEPES, 150 mM NaCl, 10 μm EDTA, pH 7.4). Immediately prior to the analysis, 3 μL of Eth Br solution (0.6 mg/ml, 1.3 mM, effectively present in excess) was added, the sample was mixed on a bench top vortex, and the fluorescence measured. The fluorescence was expressed as the percentage of the maximum fluorescence signal when EthBr was bound to the DNA in the absence of amphiphile. Assays were run in triplicate. […] Compound 30a bound DNA and displaced EthBr.

[3] = system: chinese hamster ovary (CHO) cells; experiment: B-galactosidase transfection assay; format: cell-based; settings: varying concentrations of lipid and DNA, triplicate, 96 well plates, chemiluminescent reporter
Experimental: Transfection assays were performed using the well established B-galactosidase transfection assay. In these experiments the B-galactosidase gene is transfected into cells. Next, the expressed enzyme then cleaves a chemiluminescent reporter that is detected. The assays are conducted with chinese hamster ovary (CHO) cells following a standard lipid transfection procedure. The procedure is performed on varying concentrations of lipid and DNA in triplicate in 96 well plates.

[4] = system: DNA; experiment: Exclusion assay after addition of an esterase (DNA release); format: biochemical; settings: esterase added to the amphiphile-DNA solution; EthBr intercalates again
Experimental: as §1

Row | Compound | Gel formation in DMSO [1] | DNA binding and displacement of EtBr [2] | Transfection of the B-galactosidase gene [3] | DNA release from the amphiphile after esterase cleavage of the ester linkages [4]
1 | CCCCCCCCCCCCCCCC(=O)O[C@@H]1[C@H](OC(=O)CCCCCCCCCCCCCCC)[C@@H](CO)O[C@H]1n1ccc(=O)[nH]c1=O [2′,3′dipalmitoyl uridine, 2′,3′palmitoyl uridine] | form gels in DMSO |  |  | 
2 | C[N+](C)(C)CC(COC(=O)NCCCCCCCCCCCC(=O)OCC1CC(=O)Oc2cc(O)c(Br)cc21)OC(=O)NCCCCCCCCCCCC(=O)OCC1CC(=O)Oc2cc(O)c(Br)cc21.[I-] (stereo not shown) [Compound 26, {2,3-Bis-[11-(6-bromo-7-hydroxy-2-oxo-chroman-4-ylmethoxycarbonyl)-undecylcarbamoyloxy]-propyl}-trimethyl-ammonium iodide] |  | bound DNA and displaced EtBr |  | 
3 | C[N+](C)(C)CC(COC(=O)CCCCCCCCCCC(=O)OCc1ccccc1)OC(=O)CCCCCCCCCCC(=O)OCc1ccccc1.[I-] (stereo not shown) [Compound 30a, [2,3-Bis-(11-benzyloxycarbonyl-undecanoyloxy)-propyl]-trimethyl-ammonium; iodide] |  | bound DNA and displaced EtBr | transfected the B-galactosidase gene | releasing the DNA from the amphiphile
4 | C[N+](C)(C)CC(COC(=O)CCCCCCCCCCC(=O)OCc1ccccc1[N+](=O)[O-])OC(=O)CCCCCCCCCCC(=O)OCc1ccccc1[N+](=O)[O-].[I-] (stereo not shown) [Compound 30b, {2,3-Bis-[11-(2-nitro-benzyloxycarbonyl)-undecanoyloxy]-propyl}-trimethyl-ammonium; iodide] |  | bound DNA and displaced EtBr |  | 
5 | CC(C)(C)OC(=O)CCCCCCCCCCC(=O)OCC(C[N+](C)(C)C)OC(=O)CCCCCCCCCCC(=O)OC(C)(C)C.[I-] (stereo not shown) [Compound 34, [2,3-Bis-(11-tert-butoxycarbonyl-undecanoyloxy)-propyl]-trimethyl-ammonium; iodide] |  | bound DNA and displaced EtBr |  | releasing the DNA from the amphiphile
6 | C[N+](C)(C)CC(COC(=O)CCCCCCCCCCC(=O)O)OC(=O)CCCCCCCCCCC(=O)O.[I-] (stereo not shown) [Compound 35, [2,3-Bis-(11-carboxy-undecanoyloxy)-propyl]-trimethyl-ammonium; iodide] |  | did not bind DNA and displace EthBr | minimal transfection activity | 
7 | CC(=O)OCC(C[N+](C)(C)C)OC(C)=O.[I-] (stereo not shown) [Compound 36, (2,3-Diacetoxy-propyl)-trimethyl-ammonium; iodide] |  | did not bind DNA and displace EthBr | minimal transfection activity | 
8 | C[N+](C)(C)CC(COC(=O)CCCCCCCCCCCOCc1ccccc1)OC(=O)CCCCCCCCCCCOCc1ccccc1.[I-] (stereo not shown) [Compound 40, [2,3-Bis-(12-benzyloxy-dodecanoyloxy)-propyl]-trimethyl-ammonium; iodide] |  |  | transfected the B-galactosidase gene | 
9 | CCCCCCCCCCCCCC(=O)OCC(COC(=O)CCCCCCCCCCCCC)OC(=O)CCC(=O)OCC(COC(=O)CCC(=O)OC(COC(=O)CCCCCCCCCCCCC)COC(=O)CCCCCCCCCCCCC)OC(=O)CCC(=O)OC(COC(=O)CCC(=O)OCC[N+](C)(C)C)COC(=O)CCC(=O)OCC[N+](C)(C)C [Compound 85] |  | bound DNA and displaced EtBr |  | 
10 | Trimethylamino-[G0]-PGLSA dendrimer iodide [Compound 44] |  | bound DNA and displaced EtBr |  | 
11 | Trimethylamino-[G1]-PGLSA dendrimer iodide [Compound 47] |  | bound DNA and displaced EtBr |  | 
